Columns and labels:
NALM-6 cells = assay: shRNA screen: selection of infected NALM-6 cells with dex, viability after each round; type: cell-based, human; details: for viability at 0.05 µM: Homo sapiens, 50 nM dexamethasone
Procedure: Transduction: NALM-6 cells were grown in T-175 flasks maintaining a cell density below 2 million cells/ml until a sufficient number of cells were obtained. In order to obtain a sufficient number of cells infected with each shRNA to measure both enrichment and depletion in response to dex selection, we sought to infect >1000 cells with each shRNA. In order to minimize double infection, we targeted an infection rate of ˜30%. For the Cancer library, we estimated that for 1000× coverage of 54,775 shRNAs at a 30% infection rate, we would have to start with ˜200 million cells. To ensure optimal infection, NALM-6 cells were plated at density of 1.5 million cells/ml in 6 well plates. Virus was added at a ratio of 1:10 viral supernatant/NALM-6 culture volume. Cells were the spinfected at 1000×g, 33° C., for 2 hours in the presence of 8 µg/ml polybrene. Cells were then washed in PBS, resuspended in fresh RPMI+10% FBS, and allowed to recover. Our actual infection rate was ˜70%, as measured by flow cytometry using the mCherry marker of the pMK1098 vector, for an approximate coverage of 2000 cells for each shRNA. Cells were then selected for infection using 0.5 µg/ml puromycin for 2 days, washed, and allowed to recover. The infected cells were then expanded and split into 5 pools: Infected (Time 0 or T0), Infected that would be untreated (TF), and three pools that would be treated with dex (R1-3). T0 and TF was composed of 100 million cells. T0 was frozen immediately, and TF was allowed to grow to a density no greater than 3 million cells/ml through the course of the experiment. Since we expected ˜80% death upon treatment, we started with 500 million cells each for R1-3.
Selection: Previous attempts at the screen had been hampered by inconsistent infection and selection with dex. We therefore decided to split TF and R1-3 into two experiments and treat with 50 nM dex, which kills ˜80% of NALM-6 cells in 3 days, and 1 pM dex, which kills >90%. TF samples were treated with equal volumes of DMSO vehicle. A separate TF sample was culture for both the 50 nM and 1 pM experiments. Cells were treated with each of these concentrations for three days, washed, allowed to recover, then treated two more times. From infection to the end of the experiment took 35 days for 50 nM dex and 46 days for 1 pM.
AGEK Screen: Based on the results of the Cancer panel screen, we elected to screen the three other panels (Apoptosis, Gene Expression, Kinases) under 50 nM selection by dex. The screen was performed largely as described above, but our infection rate was <30% for a coverage of ˜900 cells/shRNA.

NALM-6 = assay: Cell death assay (PrestoBlue viability, 3 days); type: cell-based; details: Homo sapiens
Procedure: Cell death assays: We used PrestoBlue to measure cell viability in response to knockdown and treatment. Cells were grown to a density of 250,000 cell/ml, then dispensed into black tissue culture plates and grown overnight. In the morning, cells were treated. For both CAL-101 (Selleckchem, S2226) and dex (Sigma, D4902), viability was measured after 3 days. As PrestoBlue measures NADPH/NADH metabolites, the balance of which can be affected by GC treatment, we performed frequent cell count spot checks manually by trypan blue exclusion to ensure that fluorescence measurements reflected true viability. Both CAL-101 and dex were dissolved in ethanol, and used 1:1000 in cell culture for a final ethanol concentration of 0.1%. […] Viabilities and EC50 were then calculated using four parameter non-least squares fitting using Prism 6. qPCR of Causative genes: Cells were grown to a density of 1 million cells/ml, then aliquoted into 6 well plates in the afternoon, then grown overnight. […]
The optimal signal was determined by incubating cells with 1 ^M dex for 0, 4, 8, and 24 hours. […] Each experiment was performed at least three times, and analyzed using GraphPad (Prism 6). Significant differences between drug and control and between either drug alone and combinations was determined by two sided Student's t-test (P-Value<0.05). […]

RCH-ACV = assay: Cell death assay (PrestoBlue viability, 3 days); type: cell-based, human
Procedure: (§1) Cell death assays: We used PrestoBlue to measure cell viability in response to knockdown and treatment. Cells were grown to a density of 250,000 cell/ml, then dispensed into black tissue culture plates and grown overnight. In the morning, cells were treated. For both CAL-101 (Selleckchem, S2226) and dex (Sigma, D4902), viability was measured after 3 days. As PrestoBlue measures NADPH/NADH metabolites, the balance of which can be affected by GC treatment, we performed frequent cell count spot checks manually by trypan blue exclusion to ensure that fluorescence measurements reflected true viability. Both CAL-101 and dex were dissolved in ethanol, and used 1:1000 in cell culture for a final ethanol concentration of 0.1%. Combination treatments were performed in triplicate in 384 well plates with 20 dilutions of dex from 10^M to 0 and 9 dilutions of CAL-101 from 10^M to 0. Viabilities and EC50 were then calculated using four parameter non-least squares fitting using Prism 6. qPCR of Causative genes: Cells were grown to a density of 1 million cells/ml, then aliquoted into 6 well plates in the afternoon, then grown overnight. Cells were then treated with the drugs and times indicated, at which point cells were spun down at 400 g for 5 minutes, the medium aspirated, and the pellet resuspended in 0.7 ml Qiazol/Trizol and frozen. RNA was then isolated using the miRNAeasy protocol. cDNA was then prepared form 1^g of RNA suing SuperScript3, and qPCR performed using BioRad iQ mix. Primers for qPCR were designed using the IDT web site, then tested for each gene. […] Expression levels for each gene were corrected for primer efficiency, normalized to RPL19, then compared to controls (Pfaffl, 2001).
(§2) The optimal signal was determined by incubating cells with 1 ^M dex for 0, 4, 8, and 24 hours. […] Cells were incubated with dex alone, CAL-101 alone, and in combination for 24 hours, then harvested and qPCR performed as described above. Each experiment was performed at least three times, and analyzed using GraphPad (Prism 6). Significant differences between drug and control and between either drug alone and combinations was determined by two sided Student's t-test (P-Value<0.05).
(§3) Three cell lines (NALM6, SUP-B15, and RCH-ACV), one resistant patient sample (HM3101), and one relapsed Phlike xenograft (ALL121) were incubated with increasing concentrations of dex or CAL-101 for 3 days. Cell viability was measured by PrestoBlue staining. Curves, values, and errors are based on at least 3 replicates. Bar plot of the EC50, calculated by four-parameter least-squares fitting (Both plotted and calculated in GraphPad Prism).

SUP-B15 = assay: Cell death assay (PrestoBlue viability, 3 days); type: cell-based, human; details: Homo sapiens
Procedure: as §1, §2, §3

[1] = system: relapsed B-ALL cells (ALL121); assay: PDX model of ALL: NSG mice engrafted with ALL121, spleen size and human ALL cells in spleen; type: in vivo; details: dex monotherapy 7.5 mg/kg daily, two weeks
Source text: As proof of concept, we tested this combination in a PDX model of ALL.

[2] = system: LAX7R and LAX56 primary human B-ALL cells; assay: Survival of primary B-ALL cells co-cultured with OP-9 feeder cells (Annexin V/7AAD); type: cell-based; details: 100-200 nM Dex alone, 3 or 5 days
Procedure: Primary ALL cells (LAX7R and LAX56) were established from mouse xenografts derived from patient samples (Adam et al., 2017; Hsieh et al., 2013). They were cultured in 24 well tissue-culture plates on irradiated OP-9 cells with growth medium containing MEM-α with 20% heat-inactivated fetal bovine serum, and 100 IU/ml penicillin and 100 μg/ml streptomycin. On day 3 and day 5 after the addition of drugs, ALL cells were collected, and apoptosis was assessed using PE Annexin V Apoptosis Detection Kit with 7-AAD.
As shown FIGS. 41A-1, 41A-2, 41B-1, and 41B-2, LAX7R (FIGS. 41A-1 and 41A-2) or LAX56 (FIGS. 41B-1 and 41B-2) primary human B-ALL cells were co-cultured with OP-9 feeder cells for 3 days (left) or 5 days (right) in the presence of the indicated drugs, and cell survival was determined by staining with Annexin/7AAD. p-value was calculated using a paired t-test, and different symbols were used to indicate p-values between different groups.+indicates statistical significance (+p≤0.05, ++p≤0.01 and + + + p≤0.001) between Dexamethasone or AZD2811 treated group and DMSO control group; # indicates statistical significance (#p≤0.05, ##p≤0.01 and # # # p≤0.001) between AZD2811+Dexamethasone combination group and AZD2811 group; * indicates statistical difference (*p≤0.05, **p≤0.01, * * *p≤0.001) between combination group and respective Dexamethasone treated groups. Values shown are mean and SD for 3 biological replicates, which are representative of 3 independent experiments.

With `C[C@@H]1C[C@H]2[C@@H]3CCC4=CC(=O)C=C[C@]4(C)[C@@]3(F)[C@@H](O)C[C@]2(C)[C@@]1(O)C(=O)CO` [dex, dexamethasone] as the molecule, how does the NALM-6 cells killed (NALM-6 cells; 1 pM dex) read?
Its NALM-6 cells killed is greater than 90%.

And the NALM-6 cells killed (NALM-6 cells; 50 nM dex, 3 days)?
Its NALM-6 cells killed is roughly 80%.

And the viability at 0.05 µM (NALM-6 cells; NALM-6, Apoptosis, Gene Expression, and Kinase Panels, treatment number 1)?
Its viability at 0.05 µM is 52%.

What about the viability at 0.05 µM (NALM-6 cells; NALM-6, Apoptosis, Gene Expression, and Kinase Panels, treatment number 2) of the same molecule?
The viability at 0.05 µM was 66%.

And the viability at 0.05 µM (NALM-6 cells; NALM-6, Apoptosis, Gene Expression, and Kinase Panels, treatment number 3)?
Its viability at 0.05 µM is 65%.

And the viability at 0.05 µM (NALM-6 cells; NALM-6, Cancer Panel, treatment number 1)?
The viability at 0.05 µM was 18%.

What about the viability at 0.05 µM (NALM-6 cells; NALM-6, Cancer Panel, treatment number 2) of the same molecule?
The viability at 0.05 µM was 72%.

What about the viability at 0.05 µM (NALM-6 cells; NALM-6, Cancer Panel, treatment number 3) of the same molecule?
Its viability at 0.05 µM is 58%.

What about the EC50 (NALM-6; NALM-6, 72 h, NALM6, viability after 3 days, read-out: EC50 for dex) of the same molecule?
The EC50 was 3.9 nM.

And the EC90 (NALM-6; NALM-6, read-out: approximately the EC90 for dex)?
Its EC90 is roughly 62.5 nM.

And the EC50 (RCH-ACV; Homo sapiens, 72 h, viability after 3 days, estimate, read-out: EC50 for dex)?
Its EC50 is 500 nM.

What about the viability maintained (RCH-ACV; even at the highest dex concentrations) of the same molecule?
The viability maintained was roughly 50%.

And the EC50 (SUP-B15; 72 h, SUP-B15, viability after 3 days, read-out: EC50 for dex)?
The EC50 was 1.6 nM.

And the EC90 (SUP-B15; SUP-B15, read-out: approximately the EC90 for dex)?
Its EC90 is roughly 4 nM.

What about the “effect on spleens (spleen size)” value [1] of the same molecule?
The value was “no effect”.

And the cell survival [2]?
The cell survival was 20-60%.
